# Measurements: patent US20210038559A1, “CANNABINOIDS AND DERIVATIVES FOR PROMOTING IMMUNOGENICITY OF TUMOR AND INFECTED CELLS” (priority 2018, published 2021)
# Counter-ions that a name gives are not always drawn.
# System: MHC-I expression by COLO 205 cells
# Test: cells
# Assay type: cell-based, human
# Details: not given
# Experimental: A panel of synthetic cannabinoids (Cayman Chemical, #9002891) was tested for MHC class I-inducing capability in COLO 205 cells as described above. COLO 205 cells were treated with the compounds at a concentration of 35 μM and evaluated for cell surface MHC class I expression after 48 hours. Cells were harvested, stained with MHC-I mAb W6/32 (Thermo Fisher). MHC-I expression was determined by flow cytometry.
row,Compound,Induction Fold [Fold]
1,(1-hexyl-1H-indol-3-yl)-1-naphthalenyl-methanone [Example 140],2.19
2,(1-hexyl-1H-pyrrol-3-yl)-1-naphthalenyl-methanone [Example 72],2.68
3,[1-(5-fluoropentyl)-6-nitro-1H-indol-3-yl]-1-naphthalenyl-methanone [Example 280],1.49

# Same assay, conditions: Homo sapiens, COLO 205, 48 h, MHC-I expression, COLO 205 cells, compounds at 35 μM, 48 hours, flow cytometry (W6/32); read-out: Induction Fold
row,Compound,fold induction at 35 µM
1,"COc1cccc2c(C(=O)N[C@@H]3C(C)(C)[C@@H]4CC[C@@]3(C)C4)cn(CCN3CCOCC3)c12 [Example 43, 7-methoxy-1-[2-(4-morpholinyl)ethyl]-N-[(1S,2 S,4R)-1,3,3-trimethylbicyclo[2.2.1]hept-2-yl]-1H-indole-3-carboxamide]",3.06
2,"CCCCCn1cc(C(=O)Oc2cccc3ccccc23)c2ccccc21 [Example 249, naphthalen-1-yl 1-pentyl-1H-indole-3-carboxylate]",1.63
3,"O=C(NC12CC3CC(CC(C3)C1)C2)c1cn(CCCCCF)c2ccccc12 [Example 144, 1-(5-fluoropentyl)-N-tricyclo[3.3.1.13,7] dec-1-yl-1H-indole-3-carboxamide]",2.17
4,"COc1ccc(C(=O)c2cn(CCN3CCOCC3)c3ccccc23)c2ccccc12 [Example 21, (4-methoxy-1-naphthalenyl)[1-[2-(4-morpholinyl)ethyl]-1H-indol-3-yl]-methanone]",3.85
5,"CCCCCn1c2ccccc2c2cc(C(=O)c3cccc4ccccc34)ccc21 [Example 315, naphthalen-1-yl(9-pentyl-9H-carbazol-3-yl)methanone]",1.32
6,"CCCCCn1cc(C(=O)Oc2cncc3ccccc23)c2ccccc21 [Example 52, isoquinolin-4-yl 1-pentyl-1H-indole-3-carboxylate]",2.98
7,"O=C(Oc1cncc2ccccc12)c1cn(CC2CCCCC2)c2ccccc12 [Example 124, isoquinolin-4-yl 1-(cyclohexylmethyl)-1H-indole-3-carboxylate]",2.3
8,"CCCCCn1cc(C(=O)C2C(C)(C)C2(C)C)c2ccccc21 [Example 94, (1-pentyl-1H-indol-3-yl)(2,2,3,3-tetramethylcyclopropyl)-methanone]",2.45
9,"CCCCCn1cc(C(=O)c2ccc(F)c3ccccc23)c2ccccc21 [Example 150, (4-fluoro-1-naphthalenyl)(1-pentyl-1H-indol-3-yl)-methanone]",2.14
10,"CCCCCc1cc(O)cc(OCCCCCCCCCCC(=O)NC2CC2)c1 [Example 331, N-cyclopropyl-11-(3-hydroxy-5-pentylphenoxy)-undecanamide]",1.22
11,"CCOC(=O)[C@@H](NC(=O)c1nn(CCCCCF)c2ccccc12)C(C)C [Example 236, ethyl (1-(5-fluoropentyl)-1H-indazole-3-carbonyl)-L-valinate]",1.7
12,"C=C(C)[C@@H]1CCC(C)=C[C@H]1C1=C(O)C(=O)C(CCCCC)=CC1=O [Example 377, 3-hydroxy-2-[(1R,6R)-3-methyl-6-(1-methylethenyl)-2-cyclohexen-1-yl]-5-pentyl-2,5-cyclohexadiene-1,4-dione]",0.3
13,"O=C(c1cccnc1)c1cn(CCCCCF)c2ccccc12 [Example 116, (1-(5-fluoropentyl)-1H-indol-3-yl)(pyridin-3-yl)methanone, monohydrochloride]",2.34
14,"CCCCCn1c(C)c(C(=O)c2ccc(C)c3ccccc23)c2ccccc21 [Example 326, (4-methyl-1-naphthalenyl)(2-methyl-1-pentyl-1H-indol-3-yl)-methanone]",1.25
15,"CCCCCCC(C)(C)c1cc(O)c2c(c1)OC(C)(C)[C@H]1CC=C(CO)C[C@H]21 [Example 360, 3-(1,1-dimethylheptyl)-6aS,7,10,10aS-tetrahydro-1-hydroxy-6,6-dimethyl-6H-dibenzo[b,d]pyran-9-methanol]",0.96
16,"CC(F)CCCCn1cc(C(=O)c2cccc3ccccc23)c2ccccc21 (centres unmarked) [Example 233, (1-(5-fluorohexyl)-1H-indol-3-yl)(naphthalen-1-yl)methanone]",1.71
17,"O=C(Oc1ccc2cccnc2c1)c1cn(CCCCCF)c2ccccc12 [Example 12, quinolin-7-yl 1-(5-fluoropentyl)-1H-indole-3-carboxylate]",4.34
18,"CCCCCCCC(C)(C)c1ccc([C@@H]2CCC[C@H](O)C2)c(O)c1 (relative stereo) [Example 241, rel-5-(1,1-dimethyloctyl)-2-[(1R,3S)-3-hydroxycyclohexyl]-phenol]",1.68
19,"CN1CCCCC(Cn2cc(C(=O)c3cccc4ccccc34)c3ccccc32)C1 (centres unmarked) [Example 6, (1-((1-methylazepan-3-yl)methyl)-1H-indol-3-yl)(naphthalen-1-yl)methanone]",5.6

row,Compound,fold induction at 35 µM
1,"CC(C)[C@H](NC(=O)c1cn(CCCCCF)c2ccccc12)C(N)=O [Example 312, N-[(1S)-1-(aminocarbonyl)-2-methylpropyl]-1-(5-fluoropentyl)-1H-indole-3-carboxamide]",1.35
2,"CCOc1ccc(Cc2nc3cc(C(=O)N(CC)CC)ccc3n2CC2CCCCC2)cc1 [Example 363, 1-(cyclohexylmethyl)-2-[(4-ethoxyphenyl)methyl]-N,N-diethyl-1H-benzimidazole-5-carboxamide]",0.92
3,"CCCc1ccc(C(=O)c2cn(CCC)c3ccccc23)c2ccccc12 [Example 78, (1-propyl-1H-indol-3-yl)(4-propyl-1-naphthalenyl)-methanone]",2.58
4,"O=C(Oc1ccc2cnccc2c1)c1cn(CCCCCF)c2ccccc12 [Example 218, isoquinolin-6-yl 1-(5-fluoropentyl)-1H-indole-3-carboxylate]",1.78
5,"O=C(NC12CC3CC(CC(C3)C1)C2)c1nn(CC2CCOCC2)c2ccccc12 (single isomer, unassigned) [Example 361, 1-[(tetrahydro-2H-pyran-4-yl)methyl]-N-tricyclo[3.3.1.1^3,7]dec-1-yl-1H-indazole-3-carboxamide]",0.95
6,"CCCCCn1cc(C(=O)Oc2cccc3ncccc23)c2ccccc21 [Example 131, quinolin-5-yl 1-pentyl-1H-indole-3-carboxylate]",2.26
7,"CCCCCn1cc(C(=O)c2ccc(Br)c3ccccc23)c2ccccc21 [Example 205, (4-bromo-1-naphthalenyl)(1-pentyl-1H-indol-3-yl)-methanone]",1.86
8,"CCC(F)CCn1cc(C(=O)Oc2cccc3cccnc23)c2ccccc21 (centres unmarked) [Example 45, quinolin-8-yl 1-(3-fluoropentyl)-1H-indole-3-carboxylate]",3.02
9,"O=C(Oc1ccc2ccccc2c1)c1nn(-c2ccccc2F)c2ccccc12 [Example 332, naphthalen-2-yl 1-(2-fluorophenyl)-1H-indazole-3-carboxylate]",1.21
10,"CCCCCn1cc(C(=O)c2cccc3cccc(CC)c23)c2ccccc21 [Example 115, (8-ethylnaphthalen-1-yl)(1-pentyl-1H-indol-3-yl)methanone]",2.35
11,"CCC(F)CCn1nc(C(=O)NC(C(N)=O)C(C)C)c2ccccc21 (centres unmarked) [Example 335, N-(1-amino-3-methyl-1-oxobutan-2-yl)-1-(3-fluoropentyl)-1H-indazole-3-carboxamide]",1.2
12,"CCCCCn1cc(C(=O)c2cccc3cccc(C)c23)c2ccccc21 [Example 81, (8-methylnaphthalen-1-yl)(1-pentyl-1H-indol-3-yl)methanone]",2.57
13,"Cc1ccc(C(=O)c2cn(CCCCCF)c3ccccc23)c2ccccc12 [Example 155, [1-(5-fluoropentyl)-1H-indol-3-yl](4-methyl-1-naphthalenyl)-methanone]",2.08
14,"CC1(C)C(C(=O)c2cn(Cc3ccc(F)cc3)c3ccccc23)C1(C)C [Example 62, (1-(4-fluorobenzyl)-1H-indol-3-yl)(2,2,3,3-tetramethylcyclopropyl)methanone]",2.79
15,"CCC(F)CCn1cc(C(=O)C2C(C)(C)C2(C)C)c2ccccc21 (centres unmarked) [Example 133, [1-(3-fluoropentyl)-1H-indol-3-yl] (2,2,3,3-tetramethylcyclopropyl)-methanone]",2.23
16,"CCCCCn1cc(C(=O)Oc2ccc3cccnc3c2)c2ccccc21 [Example 18, quinolin-7-yl 1-pentyl-1H-indole-3-carboxylate]",4.08
17,"CCCCCn1cc(C(=O)Cc2ccccc2Br)c2ccccc21 [Example 120, 2-(2-bromophenyl)-1-(1-pentyl-1H-indol-3-yl)-ethanone]",2.32
18,"CC(C)CCn1cc(C(=O)c2ccc3ccccc3c2)c2ccccc21 [Example 251, (1-isopentyl-1H-indol-3-yl)(naphthalen-2-yl)methanone]",1.62

# Same assay, conditions: MHC-I expression, COLO 205 cells, compounds at 35 μM, 48 hours, flow cytometry (W6/32)
row,Compound,Induction Fold [Fold]
1,"CCCCCn1c(C)c(C(=O)c2cccc3ccccc23)c2ccccc21 [Example 98, (2-methyl-1-pentyl-1H-indol-3-yl)-1-naphthalenyl-methanone]",2.43
2,CCCCCCCC/C=C\CCCCCCCC(=O)N[C@H](C)CO [Example 242],1.67
3,"COCCn1c(C)c(C)sc1=NC(=O)C1C(C)(C)C1(C)C [Example 95, [N(Z)]-N-[3-(2-methoxyethyl)-4,5-dimethyl-2(3H)-thiazolylidene]-2,2,3,3-tetramethyl-cyclopropanecarboxamide]",2.44
4,"CC[C@H](C)[C@H](NC(=O)c1c2ccccc2nn1CCCCCF)C(N)=O [Example 355, N-(1-amino-3S-methyl-1-oxopentan-2S-yl)-2-(5-fluoropentyl)-2H-indazole-3-carboxamide]",1.05
